One data set concerns rabbit cornea. Also noted: method as in PMID 8402965. The settings on record: 0.01 M cocaine as standard; cited from earlier work.
A further data set concerns guinea pig. Also noted: method as in PMID 8402965. Conditions: intradermal, 0.02 M procaine as standard; cited from earlier work.
The next data set deals with white mice. The settings on record: subcutaneous application; cited from earlier work.
For data set [1], the system named is M. kansasii DSM 44162 (MK DSM). The data set is described as follows: in vitro antimycobacterial MIC, broth dilution micromethod in Middlebrook 7H9. In kind it is cell-based. The settings on record: Mycobacterium kansasii, DSM 44162 / DSM 7, 168 h; 7-day cultivation, 37 °C; read-out: MIC MK DSM 7-d. (Broth dilution looks for growth in wells or tubes with falling amounts of substance.)

In data set [2] the test system is M. smegmatis ATCC 700084 (MS). The description is as above. In kind it is cell-based, Mycobacterium smegmatis. Conditions: Mycolicibacterium smegmatis, ATCC700084, 72 h; 3-day cultivation, 37 °C; read-out: MIC MS 3-d.
For data set [3], the system named is M. marinum CAMP 5644 (MM). The description is as above. It is filed as cell-based, Mycobacterium marinum. The settings on record: Mycobacterium marinum, 504 h; 21-day cultivation, 28 °C; read-out: MIC MM 21-d.
Data set [4] deals with Mycobacterium tuberculosis CNCTC My 331/88 (identical with H37Rv and ATCC 2794; MTv H37Rv). Nature of the data set: in vitro antimycobacterial MIC, dilution micromethod in Šula's semisynthetic medium. Conditions: Mycobacterium tuberculosis. It is filed as cell-based.
Data set [5] concerns M. kansasii CNCTC My 235/80 (identical with ATCC 12478; MK 235/80). Described as above. The settings on record: Mycobacterium kansasii. It is filed as cell-based, Mycobacterium kansasii.
For data set [6], the system named is M. avium CNCTC My 330/80 (identical with ATCC 25291; MA 330/80). The description is as above. In kind it is cell-based, Mycobacterium avium. The settings on record: Mycobacterium avium.
Data set [7] concerns M. tuberculosis H37Ra ATCC 25177 (MTa H37Ra). Nature of the data set: in vitro antimycobacterial MIC, 96-well Middlebrook broth, alamarBlue. In kind it is cell-based, Mycobacterium tuberculosis. Conditions: Mycobacterium tuberculosis, 168 h, 7-day cultivation; read-out: MIC MTa H37Ra 7-d. Here is the method: In vitro susceptibitity of given mycobacteria to reference drugs isoniazid (INH), ethambutol (EMB), ofloxacin (OFLX) or ciprofloxacin (CPX) was tested as well (Table 6 and Table 7).
A value of a minimum inhibitory concentration (MIC) was the lowest concentration of a tested compound, (i) which inhibited growth of MTv H37Rv, MK 235/80, MK 6509/96 and MA 330/80, respectively; (ii) at which no visible growth of MTa H37Ra, MS, MK DSM as well as MM was observed.
The molecules 1a–p were also in vitro screened against an avirulent M. tuberculosis H37Ra ATCC 25177 (MTa H37Ra), M. kansasii DSM 44162 (MK DSM), M. smegmatis ATCC 700084 (MS) and M. marinum CAMP 5644 (MM), respectively, in the Department of Infectious Diseases and Microbiology (Faculty of Veterinary Medicine, University of Veterinary and Pharmaceutical Sciences in Brno, Czech Republic).
Determination of a minimum inhibitory concentration (MIC) against MTa H37Ra. The mycobacterium was grown on Middlebrook broth (MB; MiddleBrook Pharmaceuticals, Inc., Westlake, TX, USA), supplemented with Oleic-Albumin-Dextrose-Catalase (OADC) supplement (Difco, Lawrence, KS, USA) and salicylate-derived mycobactin J (2 μg/mL; Allied Monitor Inc., Fayette, MO, USA), an iron-binding siderophore.
At log phase growth, a culture sample (10 mL) was centrifuged at 15,000 rpm/20 min using a bench top centrifuge MPW-65R (MPW Med Instruments, Warsaw, Poland). Following removal of the supernatant, a pellet was washed in fresh liquid Middlebrook 7H9GC broth (MiddleBrook Pharmaceuticals, Inc.) and re-suspended in a fresh OADC-supplemented MB (10 mL).
Turbidity was adjusted to match the McFarland standard No. 1 [87] containing approximately 3 × 10^8 Colony Forming Units (CFU) with MB broth. Further 1:20 dilution of the culture was performed in MB broth.
Susceptibility of MTa H37Ra was investigated in a 96-well plate format. In the experiments, sterile deionized water (300 µL) was added to all outer-perimeter wells of the plates to minimize evaporation of the medium in test wells during incubation. Each evaluated compound (100 µL) was incubated with MTa H37Ra (100 µL). Dilutions of each compound were prepared in triplicate and final concentrations varied from 1000 μg/mL to 8 μg/mL. All tested molecules were dissolved in DMSO (Sigma-Aldrich, Irvine, UK), and subsequent dilutions were made in supplemented MB broth. The plates were sealed with parafilm and incubated at 37 °C for 7 days.
Following incubation, 10% addition a water-soluble dye, the alamarBlue reagent (AbD Serotec, Kidlington, UK) was mixed into each well. This resaurin-based reagent served as an oxidation-reduction indicator of metabolic function and cellular health in cell viability bioassays.
Absorbance readings at 570 nm and 600 nm were taken, initially for background subtraction and after 24h re-incubation. The subtraction is necessary for strongly colored compounds, where the color may interfere with the interpretation of any color change. For non-interfering compounds, a blue color in a well was interpreted as absence of growth and pink color was scored as growth.
The minimum inhibitory concentration (MIC) was defined as the lowest concentration of a compound, at which no visible bacterial growth was observed. In other words, the MIC was the lowest concentration that prevented visual color change from blue to pink.
Background: The colour change of resazurin is a common sign of viable cells or microbes.

Where [8] appears, read: 336 h, 14-day cultivation, read-out: MIC MTv H37Rv 14-d.
Setting [9] is: 504 h, 21-day cultivation, read-out: MIC MTv H37Rv 21-d.
The mark [10] stands for this setting: ATCC12478, 168 h, 7-day cultivation, read-out: MIC MK 235/80 7-d.
[11] abbreviates: ATCC12478, 336 h, 14-day cultivation, read-out: MIC MK 235/80 14-d.
[12] abbreviates: ATCC12478, 504 h, 21-day cultivation, read-out: MIC MK 235/80 21-d.
[13] abbreviates: ATCC25291, 336 h, 14-day cultivation, read-out: MIC MA 330/80 14-d.
Where [14] appears, read: ATCC25291, 504 h, 21-day cultivation, read-out: MIC MA 330/80 21-d.

Values after ≈ are worked out from the molar mass of the structure shown. Read-outs that look alike come from different tables or passages of the source. Some results are limits rather than exact numbers.

Take `COC(=O)[C@H]1[C@@H](OC(=O)c2ccccc2)C[C@@H]2CC[C@H]1N2C` [cocaine]: the “Us, index of relative surface local anesthetic efficiency” value in the data set with rabbit cornea is on record as 1.0. For the same compound, the “Ui, index of relative infiltration local anesthetic efficiency” value with guinea pig is given as 3.6. Moreover, the LD50 (commonly the dose at which mortality reaches 50%) with white mice was 125 mg/kg.
In the case of `O=C(O)c1cn(C2CC2)c2cc(N3CCNCC3)c(F)cc2c1=O` [CPX, ciprofloxacin, reference compound], the figures for the MIC in data set [1], in [2] and in data set [3] were 3 µM (≈ 0.994 µg/mL), 0.4 µM (≈ 0.133 µg/mL) and 0.8 µM (≈ 0.265 µg/mL), respectively.
With `CC1COc2c(N3CCN(C)CC3)c(F)cc3c(=O)c(C(=O)O)cn1c23` (stereo not shown) [OFLX, ofloxacin, reference compound], the MIC in data set [4] (setting [8]) stood at 1 µM (≈ 0.361 µg/mL); in data set [4] (setting [9]) it was 2 µM (≈ 0.723 µg/mL); in data set [5] (setting [10]) it was 0.5 µM (≈ 0.181 µg/mL); in data set [5] (setting [11]) it was 1 µM (≈ 0.361 µg/mL); in [5] (setting [12]), 1 µM (≈ 0.361 µg/mL); in data set [6] (setting [13]), 32 µM (≈ 11.6 µg/mL). Also, the MIC in data set [6] (setting [14]) came out at 62.5 µM (≈ 22.6 µg/mL).
Take `CC[C@@H](CO)NCCN[C@@H](CC)CO` [EMB, ethambutol, reference compound]: the MIC came to 1 µM (≈ 0.204 µg/mL) in data set [4] (setting [8]); 2 µM (≈ 0.409 µg/mL) in data set [4] (setting [9]); 16 µM (≈ 3.27 µg/mL) in data set [6] (setting [13]); 16 µM (≈ 3.27 µg/mL) in data set [6] (setting [14]); 16 µM (≈ 3.27 µg/mL) in data set [6] (ATCC25291, cultivation time not given, read-out: MIC MA 330/80).
As to `CCN(CC)CCOC(=O)c1ccc(N)cc1` [procaine], in the data set with rabbit cornea, the “Us, index of relative surface local anesthetic efficiency” value is 0.1. Besides, the “Ui, index of relative infiltration local anesthetic efficiency” value in the data set with guinea pig is reported as 1.0. In the data set with white mice, the 50% lethal dose (LD50) is given as 600 mg/kg.
Regarding `NNC(=O)c1ccncc1` [INH, isoniazid, reference compound], the MIC in [4] (setting [8]) is 0.5 µM (≈ 0.0686 µg/mL); in data set [4] (setting [9]), 1 µM (≈ 0.137 µg/mL); in data set [7] it was 36.5 µM (≈ 5.01 µg/mL); in data set [5] (setting [10]) it was greater than 250 µM; in data set [5] (setting [11]), greater than 250 µM; in [5] (setting [12]) it was greater than 250 µM. Moreover, the MIC is greater than 250 µM in [6] (setting [13]), greater than 250 µM in data set [6] (setting [14]), 117 µM (≈ 16 µg/mL) in data set [2] and 467 µM (≈ 64 µg/mL) in data set [3].

Values taken from article PMC6222509, “Dibasic Derivatives of Phenylcarbamic Acid against Mycobacterial Strains: Old Drugs and New Tricks?” (Molecules : A Journal of Synthetic Chemistry and Natural …, 2018).
